Columns and labels:
Assay type in all cases: in vivo
Petunia = test: Inter-row cultivation herbicide activity: effect on untreated adjacent plant; design: key: yes: the dose and the mode of use when use in intercrop cultivation is prescribed; indicates that it is not
Description: Pure benzyl alcohol was used (PanReac AppliChem—ITW Reagents).
Two plants (Petunia) were planted with a spacing of 20 cm. Only one of the plants is treated, either in a foliar manner or by sprinkling in different concentrations (10 L/Ha, 20 L/Ha, 50 L/Ha, 100 L/Ha, 200 L/Ha, 300 L/Ha, […], 500 L/Ha, 600 L/Ha).

Mustard = test: Early post-emergence herbicide activity, visual rating of symptoms; details: cotyledon stage, average of 5 pots
Description: The soil is composed of 50% agricultural soil and 50% vermiculite.
Mustard seeds are sown in a Petri dish up to the stage of emergence of the radicle. The pre-germinated seeds are placed 1 cm deep in 8 cm×8 cm pots at a rate of 5 seeds per pot and 5 pots/repetitions per condition (treated plants and control plants).
On appearance of the cotyledons, the treatment is applied using a spraying bench simulating an outdoor treatment.
The spraying volume of 200 L/ha.
An untreated control (water alone) is added.
The cultivation conditions are 15° C. during the night/20° C. during the day with a photoperiod of 14 hours (light intensity of approximately 300 μmol/s/m^2).
A visual rating of the symptoms at 1, 3 and 7 days after treatment is carried out for the treated plants.
Each value is an average value calculated over 5 pots per condition.

[1] = test system: Chenopodium album (CHEAL); test: Systemic action through contact with the leaves: metabolic activity by epifluorescence microscopy; details: 20 L/ha, control group 5
Description: Chenopodium album (CHEAL) seeds are sown in Petri dishes in vermiculite moistened with a 0.2% solution of […]. The dishes are incubated in a climatic chamber at 15° C./20° C. night/day and 14 h photoperiod up to the stage of emergence of the cotyledons. The plantlets are then transplanted, at a rate of 6 plants per pot and 5 pots in each of the groups (treated group and control group), in a mixture of agricultural earth:vermiculite (50:50).
The plantlets are cultivated under the same environmental conditions as previously up to the stage BBCH12-14.
The plants are treated with benzyl alcohol at the stage BBCH12-14 with a dose of 20 L/ha benzyl alcohol with 660 g/I water, i.e. 13.2 kg benzyl alcohol/ha.
The product is applied in a volume corresponding to 300 L/ha using a spraying bench equipped with agricultural nozzles (Turbo Teejet TTII0015).
After treatment, the plants are returned to cultivation in a climatic chamber at 15° C./20° C. night/day and 14 h photoperiod.
A control group is not treated and only receives water.
[…] observations were carried out by epifluorescence microscopy on the leaves and the roots of the treated plants and the control plants, 24 h and 7 days after treatment on the leaves.
The results observed on the epifluorescence microscopy images are reported in Tables 11 and 12 below, in which a mark of 0 to 5 is attributed depending on the intensity and the surface area of the fluorescence observed, where 0=no metabolic activity, and 5=complete metabolic activity.
Before uprooting and epifluorescence microscopy analysis, the treated plants were divided into 2 groups: • Group 1: plants not showing or showing few symptoms of drying on the treated area (leaf) • Group 2: plants having a dry leaf on the treated area (leaf)

squares of grass = test: Outdoor assays with benzyl alcohol used alone
Description: The outdoor assays were carried out on squares of grass having a surface area of 1 m^2. The application of the product is carried out with a compression sprayer which makes it possible to spray 20 to 100 g liquid over a surface area of 1 m^2 (equivalent to 200-1000 L/Ha).
The treated squares of grass are sprayed with a total quantity of water and pure benzyl alcohol (PanReac AppliChem—ITW Reagents) of 20 g (equivalent 200 l/Ha) including 0.5 g benzyl alcohol (equivalent to 5 L/Ha pure benzyl alcohol).
The control squares of grass receive a total quantity of 20 g water alone.
The following measurements and evaluations were carried out: • Percentage of the surface area affected: Following the assays in pots, it was noted that the change in colour correlated with the collapsing and the death of the plants. The time necessary to impact the colour of the grass as well as its surface area was evaluated. • Measurement of the collapsing of the grass: the distance between the ground and the highest part of 10 blades of grass selected at random in a square is measured. The average of these 10 blades is calculated and, after treatment, when this average distance is reduced by 30%, the collapsing time is determined.
Assay no. 2 was carried out under the same conditions as assay no. 1, except that the treated squares of grass are sprayed with a total quantity of water and benzyl alcohol of 60 g (equivalent 600 L/Ha) including 5 g pure benzyl alcohol (equivalent to 50 L/Ha pure benzyl alcohol).
Assay no. 3 was carried out under the same conditions as assay no. 1, except that the treated squares of grass are sprayed with a total quantity of 20 g pure benzyl alcohol (equivalent to 200 L/Ha pure benzyl alcohol).
Assay no. 4 was carried out under the same conditions as assay no. 1, except that the treated squares of grass are sprayed with a total quantity of water and benzyl alcohol of 60 g (equivalent 600 L/Ha) including 40 g pure benzyl alcohol (equivalent to 400 L/Ha pure benzyl alcohol).
Assay no. 5 was carried out under the same conditions as assay no. 1, except that the treated squares of grass are sprayed with a total quantity of water and benzyl alcohol of 100 g (equivalent 1000 L/Ha) including 60 g pure benzyl alcohol (equivalent to 600 L/Ha pure benzyl alcohol).
Assay no. 6 was carried out under the same conditions as assay no. 1, except that the treated squares of grass are sprayed with a total quantity of 80 g pure benzyl alcohol (equivalent to 800 L/Ha pure benzyl alcohol).

[2] = 24 h after leaf spraying, Group 1 (no or few symptoms of drying)
[3] = 24 h after leaf spraying, Group 2 (dry leaf on treated area)
[4] = 7 days after leaf spraying, Group 1 (no or few symptoms of drying)
[5] = 7 days after leaf spraying, Group 2 (dry leaf on treated area)

Q: Which “Inter-row use possible (untreated plant at 20 cm does not collapse)” value (Petunia; foliar, 50 L/Ha) does the source give for OCc1ccccc1 [benzyl alcohol] here?
A: no

Q: And the “Inter-row use possible (untreated plant at 20 cm does not collapse)” value (Petunia; foliar, 100 L/Ha)?
A: no

Q: And the “Inter-row use possible (untreated plant at 20 cm does not collapse)” value (Petunia; foliar, 200 L/Ha)?
A: no

Q: And the “Inter-row use possible (untreated plant at 20 cm does not collapse)” value (Petunia; foliar, less than 50 L/Ha)?
A: no

Q: And the “Inter-row use possible (untreated plant at 20 cm does not collapse)” value (Petunia; sprinkling, 50 L/Ha)?
A: yes

Q: And the “Inter-row use possible (untreated plant at 20 cm does not collapse)” value (Petunia; sprinkling, 100 L/Ha)?
A: yes

Q: And the “Inter-row use possible (untreated plant at 20 cm does not collapse)” value (Petunia; sprinkling, 200 L/Ha)?
A: no

Q: And the “Inter-row use possible (untreated plant at 20 cm does not collapse)” value (Petunia; sprinkling, less than 50 L/Ha)?
A: yes

Q: And the “Visual rating of the symptoms (0 = similar to control, 100 = dead plant)” value (“Visual rating of the symptoms” below) (Mustard; 30 L/ha active material, 1 day after treatment)?
A: 3

Q: And the “Visual rating of the symptoms” value (Mustard; 30 L/ha active material, 3 days after treatment)?
A: 21

Q: And the “Visual rating of the symptoms” value (Mustard; 30 L/ha active material, 7 days after treatment)?
A: 81

Q: And the “Visual rating of the symptoms” value (Mustard; 40 L/ha active material, 1 day after treatment)?
A: 59

Q: And the “Visual rating of the symptoms” value (Mustard; 40 L/ha active material, 3 days after treatment)?
A: 82

Q: And the “Visual rating of the symptoms” value (Mustard; 40 L/ha active material, 7 days after treatment)?
A: 93

Q: And the “Visual rating of the symptoms” value (Mustard; 60 L/ha active material, 1 day after treatment)?
A: 63

Q: And the “Visual rating of the symptoms” value (Mustard; 60 L/ha active material, 3 days after treatment)?
A: 92

Q: And the “Visual rating of the symptoms” value (Mustard; 60 L/ha active material, 7 days after treatment)?
A: 100

Q: And the “Metabolic activity on the leaves (mark 0 to 5; 0=no, 5=complete metabolic activity)” value [1, 2]?
A: 1

Q: And the “Metabolic activity on the roots (mark 0 to 5; 0=no, 5=complete metabolic activity)” value [1, 2]?
A: 2

Q: And the “Metabolic activity on the leaves (mark 0 to 5; 0=no, 5=complete metabolic activity)” value [1, 3]?
A: 1

Q: What about the “Metabolic activity on the roots (mark 0 to 5; 0=no, 5=complete metabolic activity)” value [1, 3] of the same compound?
A: 2.5

Q: And the “Metabolic activity on the leaves (mark 0 to 5; 0=no, 5=complete metabolic activity)” value [1, 4]?
A: 0.5

Q: And the “Metabolic activity on the roots (mark 0 to 5; 0=no, 5=complete metabolic activity)” value [1, 4]?
A: 1.5

Q: And the “Metabolic activity on the leaves (mark 0 to 5; 0=no, 5=complete metabolic activity)” value [1, 5]?
A: 0

Q: And the “Metabolic activity on the roots (mark 0 to 5; 0=no, 5=complete metabolic activity)” value [1, 5]?
A: 2

Q: What about the “Collapsing of the grass: time after treatment to average collapsing of 30%” value (shortened to “Collapsing of the grass: time … of 30%”) (squares of grass; Assay no. 1: 1 m2 grass outdoors, 0.5 g benzyl alcohol (5 L/Ha) in 20 g total (200 l/Ha)) of the same compound?
A: 72 h

Q: And the “Maximum percentage of the surface area affected” value (“Maximum percentage” for short) (squares of grass; Assay no. 1: 1 m2 grass outdoors, 0.5 g benzyl alcohol (5 L/Ha) in 20 g total (200 l/Ha), observed 96 h after treatment)?
A: 45%

Q: What about the “Collapsing of the grass: time … of 30%” value (squares of grass; Assay no. 2: 1 m2 grass outdoors, 5 g benzyl alcohol (50 L/Ha) in 60 g total (600 L/Ha)) of the same compound?
A: 48 h

Q: And the “Maximum percentage” value (squares of grass; Assay no. 2: 1 m2 grass outdoors, 5 g benzyl alcohol (50 L/Ha) in 60 g total (600 L/Ha), observed 72 h after treatment)?
A: 60%

Q: What about the “Collapsing of the grass: time … of 30%” value (squares of grass; Assay no. 3: 1 m2 grass outdoors, 20 g pure benzyl alcohol (200 L/Ha)) of the same compound?
A: 48 h

Q: What about the “Maximum percentage” value (squares of grass; Assay no. 3: 1 m2 grass outdoors, 20 g pure benzyl alcohol (200 L/Ha), observed 48 h after treatment) of the same compound?
A: 80%

Q: What about the “Collapsing of the grass: time … of 30%” value (squares of grass; Assay no. 4: 1 m2 grass outdoors, 40 g benzyl alcohol (400 L/Ha) in 60 g total (600 L/Ha)) of the same compound?
A: 24 h

Q: What about the “Maximum percentage” value (squares of grass; Assay no. 4: 1 m2 grass outdoors, 40 g benzyl alcohol (400 L/Ha) in 60 g total (600 L/Ha), observed 24 h after treatment) of the same compound?
A: 100%

Q: And the “Collapsing of the grass: time … of 30%” value (squares of grass; Assay no. 5: 1 m2 grass outdoors, 60 g benzyl alcohol (600 L/Ha) in 100 g total (1000 L/Ha))?
A: 6 h

Q: What about the “Maximum percentage” value (squares of grass; Assay no. 5: 1 m2 grass outdoors, 60 g benzyl alcohol (600 L/Ha) in 100 g total (1000 L/Ha), observed 24 h after treatment) of the same compound?
A: 100%

Q: And the “Collapsing of the grass: time … of 30%” value (squares of grass; Assay no. 6: 1 m2 grass outdoors, 80 g pure benzyl alcohol (800 L/Ha))?
A: 6 h

Q: And the “Maximum percentage” value (squares of grass; Assay no. 6: 1 m2 grass outdoors, 80 g pure benzyl alcohol (800 L/Ha), observed 6 h after treatment)?
A: 100%

— US20220338473A1, “USE OF BENZYL ALCOHOL AS A HERBICIDE” (INNOVI, priority 2019, published 2022)
